# Measured values reported in patent US7501428B2, “Quinazoline thiazolinones” (Hoffmann-La Roche Inc., priority 2004, dated 2009).
# Molecular target: T1, recombinant human CDK1/Cyclin B complex (Homo sapiens, UniProt P06493)
# T1 construct: made in house; host or cells: High Five insect cells (baculovirus) for CDK1/GST-cyclin B; M15 E. coli for the Rb substrate
# Experiment: CDK1/Cyclin B kinase assay (FlashPlate or HTRF)
# Assay type: biochemical
# Conditions: Rb protein substrate, Ki=IC50/(1+[S]/Km)
# Protocol: To determine inhibition of CDK1 activity, either FlashPlate™ (NEN™-Life Science Products) assay or HTRF assay was performed. Both types of kinase assays were carried out using recombinant human CDK1/Cyclin B complex. GST-cyclinB (GST-cycB) and CDK1 cDNA clones in baculovirus vectors were provided by Dr. W. Harper at the Baylor College of Medicine, Houston, Tex. Proteins were co-expressed in High Five™ insect cells and the complex was purified on glutathione Sepharose resin (Pharmacia, Piscataway, N.J.) as previously described (Harper, J. W. et al. Cell 1993, 75, 805-816). A 6×-Histidine tagged truncated form of retinoblastoma (Rb) protein (amino acid 386-928) was used as the substrate for the CDK1/Cyclin B assay (the expression plasmid was provided by Dr. Veronica Sullivan, Department of Molecular Virology, Roche Research Centre, Welwyn Garden City, United Kingdom). The Rb protein is a natural substrate for phosphorylation by CDK1 (see Herwig and Strauss Eur. J. Biochem. Vol. 246 (1997) pp. 581-601 and the references cited therein). The expression of the 62Kd protein was under the control of an IPTG inducible promoter in an M15 E. coli strain. Cells were lysed by sonication and purification was carried out by binding lysates at pH 8.0 to a Ni-chelated agarose column pretreated with 1 mM imidazole. The resin was then washed several times with incrementally decreasing pH buffers to pH 6.0, and eluted with 500 mM imidazole. Eluted protein was dialyzed against 20 mM HEPES pH 7.5, 30% glycerol, 200 mM NaCl, and 1 mM DTT. Purified Rb fusion protein stocks were quantitated for protein concentration, aliquoted, and stored at −70° C.
# For the FlashPlate kinase assay, 96-well FlashPlates were coated with Rb protein at 10 μg/ml, using 100 μl per well. Plates were incubated at 4° C. overnight or at room temperature for 3 hours on a shaker. […] Plates were washed four times with the wash buffer, sealed, and counted on the TopCount scintillation counter (Packard Instrument Co., Downers Grove, Ill.]. The percent inhibition of Rb phosphorylation, which is a measure of the inhibition of CDK activity, was determined according to the following formula:
# [formula] where “test compound” refers to the average counts per minute of the test duplicates, “nonspecific” refers to the average counts per minute when no CDK1/Cyclin B, etc., was added, and “total” refers to the average counts per minute when no compound was added. […] The value of the inhibitor constant Ki is calculated by the following: Ki=IC50/(1+[S]/Km), where [S] is the ATP concentration and Km is Michaelis constant.
# The Homogeneous Time Resolved Fluorescence (HTRF) kinase assay was carried out in 96-well polypropylene plates (BD Biosciences, Bedford, Mass.). […]
# T1 sequence (P06493 whole entry): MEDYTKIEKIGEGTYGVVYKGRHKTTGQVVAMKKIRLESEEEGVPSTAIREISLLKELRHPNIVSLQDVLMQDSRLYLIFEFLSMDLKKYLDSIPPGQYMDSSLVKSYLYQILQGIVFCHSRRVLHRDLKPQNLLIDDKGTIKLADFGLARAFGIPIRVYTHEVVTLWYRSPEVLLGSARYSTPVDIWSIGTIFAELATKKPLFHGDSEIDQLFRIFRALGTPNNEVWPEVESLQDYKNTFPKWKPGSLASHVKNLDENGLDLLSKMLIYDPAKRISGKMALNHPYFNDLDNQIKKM
# T1 sequence (P14635 whole entry partner): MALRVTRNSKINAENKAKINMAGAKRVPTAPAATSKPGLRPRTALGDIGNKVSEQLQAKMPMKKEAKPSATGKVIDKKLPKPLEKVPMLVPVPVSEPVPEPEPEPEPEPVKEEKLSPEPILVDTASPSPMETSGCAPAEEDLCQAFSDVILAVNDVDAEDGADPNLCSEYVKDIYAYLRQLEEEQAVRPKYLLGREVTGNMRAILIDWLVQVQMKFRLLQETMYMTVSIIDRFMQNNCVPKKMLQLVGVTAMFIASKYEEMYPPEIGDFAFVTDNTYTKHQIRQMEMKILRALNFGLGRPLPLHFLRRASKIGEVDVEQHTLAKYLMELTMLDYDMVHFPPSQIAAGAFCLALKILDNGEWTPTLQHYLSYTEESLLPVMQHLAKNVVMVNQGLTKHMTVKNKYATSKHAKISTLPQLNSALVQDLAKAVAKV
row,Ki [µM],Structure (SMILES)
1,0.881,"O=C1N=C(NCCc2cccc(F)c2)S/C1=C\c1ccc2ncncc2c1 [Example 3, 2-[2-(3-Fluoro-phenyl)-ethylamino]-5-[1-quinazolin-6-yl-meth-(Z)-ylidene]-thiazol-4-one]"
2,1.11,"O=C1N=C(N[C@@H](CO)Cc2ccccc2)S/C1=C\c1ccc2ncncc2c1 [Example 7, 2-((R)-1-Hydroxymethyl-2-phenyl-ethylamino)-5-[1-quinazolin-6-yl-meth-(Z)-ylidene]-thiazol-4-one]"
3,1.84,"COc1cc(F)ccc1NC1=NC(=O)/C(=C/c2ccc3ncncc3c2)S1 [Example 5, 2-(4-Fluoro-2-methoxy-phenylamino)-5-[1-quinazolin-6-yl-meth-(Z)-ylidene]-thiazol-4-one]"
4,1.22,"O=C1N=C(NCc2cccs2)S/C1=C\c1ccc2ncncc2c1 [Example 1, 5-[1-Quinazolin-6-yl-meth-(Z)-ylidene]-2-[(thiophen-2-ylmethyl)-amino]-thiazol-4-one]"
